The target of one experiment is GCN2 kinase (Homo sapiens, UniProt Q9P2K8). Kind of experiment: GCN2 enzyme inhibition assay (Transcreener ADP2 fluorescence polarization). It is filed as biochemical. To be noted: compounds of Formula II; 280 μM ATP, 4 nM GCN2 kinase. The gist of the method:
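ADP formation read by Transcreener FP after a 1 h, 25 °C kinase reaction containing 280 μM ATP, 200 μM (RS)7 substrate and 4 nM GCN2, pH 7.5 Tris buffer. Compounds (0–8 μM final) were added 10 min before ATP. Percent inhibition gave IC50 and apparent Ki via tight-binding fit.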

In experiment [1] the target is intracellular GCN2 (phosphorylation of the GCN2 substrate eIF2α) (Homo sapiens, UniProt Q9P2K8). Kind of experiment: GCN2 cellular inhibition assay (AlphaScreen SureFire P-eIF2α Ser51, borrelidin-treated U2OS cells). Format: cell-based. Conditions: compounds of Formula II; biomarker assay, phosphorylated eIF2α Ser51 in borrelidin-treated U2OS cells. As for the experimental part: Compounds can be screened for their ability to inhibit intracellular GCN2 using an AlphaScreen assay (Perkin Elmer) to detect phosphorylation of the GCN2 substrate eIF2α in borrelidin-treated cells. U2OS cells are plated at 5,000 cells per well in 384-well white polystyrene plates (Corning 3570) in McCoy's 5 A media (GIBCO 26600-023) supplemented with 10% foetal bovine serum (SAFC 12103C), Penicillin/Streptomycin solution diluted 1:100 (Sigma P0781), and 2 mM L-glutamine (Sigma G7513), and allowed to adhere overnight at 37° C. in 5% CO2. Compounds are then added to the cell media from a final concentration of 40 μM in 4-fold serial dilutions. Borrelidin (FluoroChem M01440) is immediately added to the wells to a final concentration of 10 μM and the cells are incubated for 1 h at 37° C. in 5% CO2. After 1 h of treatment with borrelidin, the media is removed, and the cells are lysed with lysis buffer (TGR BioSciences TGRLB) at ambient temperature.
Chain of intracellular GCN2 (phosphorylation of the GCN2 substrate eIF2α) (Q9P2K8 whole entry): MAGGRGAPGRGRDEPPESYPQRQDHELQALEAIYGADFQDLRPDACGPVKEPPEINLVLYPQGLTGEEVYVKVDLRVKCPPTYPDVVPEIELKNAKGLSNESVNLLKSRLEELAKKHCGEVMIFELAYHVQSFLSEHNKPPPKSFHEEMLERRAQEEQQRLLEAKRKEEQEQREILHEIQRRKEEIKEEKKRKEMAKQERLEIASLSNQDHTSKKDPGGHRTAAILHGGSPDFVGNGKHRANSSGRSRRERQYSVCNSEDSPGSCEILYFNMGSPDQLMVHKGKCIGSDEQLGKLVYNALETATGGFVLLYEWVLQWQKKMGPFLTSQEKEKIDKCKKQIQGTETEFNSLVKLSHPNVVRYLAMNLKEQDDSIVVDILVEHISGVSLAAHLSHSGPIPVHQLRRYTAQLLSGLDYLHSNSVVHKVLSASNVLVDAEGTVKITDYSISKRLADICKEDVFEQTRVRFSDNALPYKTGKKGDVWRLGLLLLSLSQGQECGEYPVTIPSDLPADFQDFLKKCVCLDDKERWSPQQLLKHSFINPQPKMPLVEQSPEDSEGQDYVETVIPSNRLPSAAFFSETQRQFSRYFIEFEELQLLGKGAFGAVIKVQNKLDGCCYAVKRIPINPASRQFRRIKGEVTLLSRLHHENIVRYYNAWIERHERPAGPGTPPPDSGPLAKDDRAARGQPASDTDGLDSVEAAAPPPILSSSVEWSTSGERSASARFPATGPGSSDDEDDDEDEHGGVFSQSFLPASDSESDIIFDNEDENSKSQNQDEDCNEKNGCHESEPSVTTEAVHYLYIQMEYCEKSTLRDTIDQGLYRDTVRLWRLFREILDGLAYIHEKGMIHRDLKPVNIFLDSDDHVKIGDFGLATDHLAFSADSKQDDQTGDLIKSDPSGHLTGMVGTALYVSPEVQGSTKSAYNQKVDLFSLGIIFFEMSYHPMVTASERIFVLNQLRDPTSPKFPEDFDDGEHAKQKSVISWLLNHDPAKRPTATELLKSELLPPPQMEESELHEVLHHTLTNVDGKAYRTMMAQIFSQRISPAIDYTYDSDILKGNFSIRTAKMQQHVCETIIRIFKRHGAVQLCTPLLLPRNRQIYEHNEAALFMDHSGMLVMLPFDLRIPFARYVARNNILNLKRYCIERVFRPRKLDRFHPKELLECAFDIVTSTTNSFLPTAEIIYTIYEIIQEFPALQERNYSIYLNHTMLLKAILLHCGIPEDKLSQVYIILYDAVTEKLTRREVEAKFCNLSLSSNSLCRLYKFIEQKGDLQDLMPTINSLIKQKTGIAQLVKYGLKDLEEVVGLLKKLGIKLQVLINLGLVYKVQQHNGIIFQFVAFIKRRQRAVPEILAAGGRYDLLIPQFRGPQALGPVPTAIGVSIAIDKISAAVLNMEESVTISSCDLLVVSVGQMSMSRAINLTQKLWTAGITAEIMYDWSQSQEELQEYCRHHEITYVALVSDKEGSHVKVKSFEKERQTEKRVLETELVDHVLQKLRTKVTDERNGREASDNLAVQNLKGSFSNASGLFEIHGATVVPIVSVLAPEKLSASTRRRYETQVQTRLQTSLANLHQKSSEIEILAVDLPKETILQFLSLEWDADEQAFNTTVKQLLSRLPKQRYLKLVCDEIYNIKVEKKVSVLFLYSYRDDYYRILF
An AlphaScreen SureFire P-eIF2α (Ser51) assay kit (Perkin Elmer TGREIF2S) was used to measure levels of eIF2α phosphorylated on Serine 51. Anti-phosphorylated eIF2α Ser51 antibody-linked acceptor beads (TGR BioScience 6760617) are added to the cell homogenate (diluted 1:250 into a mixture of activation (TGR BioScience TGRAB) and reaction buffer (TGR BioScience TGREIF2S) prepared immediately before use). The plate is then incubated for 2 h at ambient temperature in the dark. Anti-eIF2α antibody-linked donor beads (TGR BioScience 6760617) were then added (diluted 1:100 in dilution buffer (TGR BioScience TGRDB) prepared immediately before use). The plate is then incubated overnight at ambient temperature in the dark.
Plates are analyzed on an Alpha Technology-compatible PHERAstar FS plate reader (BMG Labtech Version 1.14) to quantify phosphorylated eIF2α Ser51 levels. The percentage inhibition of phosphorylated eIF2α is calculated by comparison to control wells stimulated with borrelidin alone.

Chain of GCN2 kinase (Q9P2K8 whole entry): as above

Turning to `FC(F)(F)c1ccc2ncc(-c3ccnc(N4CCOC(c5cn[nH]c5)C4)c3)n2n1` (single isomer, unassigned) [II-230, 2-(1H-Pyrazol-4-yl)-4-(4-(6-(trifluoromethyl)imidazo[1,2-b]pyridazin-3-yl)pyridin-2-yl)morpholine], at GCN2 kinase, the Ki is below 10 nM. This compound also had an IC50 in experiment [1] below 500 nM.

For the compound `COC1CC(CNS(C)(=O)=O)CN(c2cc(-c3cnc4ccc(C(F)F)nn34)ncn2)C1` (single isomer, unassigned) [II-233, N-((1-(6-(6-(Difluoromethyl)imidazo[1,2-b]pyridazin-3-yl)pyrimidin-4-yl)-5-methoxypiperidin-3-yl)methyl)methanesulfonamide], the inhibition constant Ki on GCN2 kinase is below 10 nM. Further, in experiment [1], the 50% inhibitory concentration (IC50) was below 500 nM.

In the case of `FC(F)c1ccc2ncc(-c3cc(C4CCCN(C5COC5)C4)ncn3)n2n1` (single isomer, unassigned) [II-241, 6-(Difluoromethyl)-3-(6-(1-(oxetan-3-yl)piperidin-3-yl)pyrimidin-4-yl)imidazo[1,2-b]pyridazine], the inhibition constant (Ki) on GCN2 kinase was above 1000 nM. For the same compound, in experiment [1], the concentration for half-maximal inhibition (IC50) was above 5000 nM.

Consider `FC(F)c1ccc2ncc(-c3cc(C4CCCN(C5COC5)C4)ncn3)n2n1` (single isomer, unassigned) [II-242, 6-(Difluoromethyl)-3-(6-(1-(oxetan-3-yl)piperidin-3-yl)pyrimidin-4-yl)imidazo[1,2-b]pyridazine], for which the Ki at GCN2 kinase was 10 to 1000 nM. For the same compound, the IC50 in experiment [1] was above 5000 nM.

Compound `CC1C(CNS(C)(=O)=O)CCCN1c1cc(-c2cnc3ccc(C(F)F)nn23)ncn1` (single isomer, unassigned) [II-263, N-((1-(6-(6-(Difluoromethyl)imidazo[1,2-b]pyridazin-3-yl)pyrimidin-4-yl)-2-methylpiperidin-3-yl)methyl)methanesulfonamide] showed a Ki on GCN2 kinase of 10 to 1000 nM. The IC50 in experiment [1] lay within 500 to 5000 nM.

Consider `CC1C(CNS(C)(=O)=O)CCCN1c1cc(-c2cnc3ccc(C(F)F)nn23)ncn1` (single isomer, unassigned) [II-264, N-((1-(6-(6-(Difluoromethyl)imidazo[1,2-b]pyridazin-3-yl)pyrimidin-4-yl)-2-methylpiperidin-3-yl)methyl)methanesulfonamide], for which the Ki at GCN2 kinase lay within 10 to 1000 nM. This compound returned a concentration for half-maximal inhibition (IC50) in experiment [1] above 5000 nM.

On to `CC1C(CNS(C)(=O)=O)CCCN1c1cc(-c2cnc3ccc(C(F)F)nn23)ncn1` (single isomer, unassigned) [II-265, N-((1-(6-(6-(Difluoromethyl)imidazo[1,2-b]pyridazin-3-yl)pyrimidin-4-yl)-2-methylpiperidin-3-yl)methyl)methanesulfonamide], for which the inhibitory constant (Ki) on GCN2 kinase fell in the range of 10 to 1000 nM. This compound also had an IC50 in experiment [1] above 5000 nM.

Turning to `CC1C(CNS(C)(=O)=O)CCCN1c1cc(-c2cnc3ccc(C(F)F)nn23)ncn1` (single isomer, unassigned) [II-266, N-((1-(6-(6-(Difluoromethyl)imidazo[1,2-b]pyridazin-3-yl)pyrimidin-4-yl)-2-methylpiperidin-3-yl)methyl)methanesulfonamide], the inhibition constant (Ki) at GCN2 kinase was below 10 nM. The 50% inhibitory concentration (IC50) in experiment [1] is below 500 nM.

At GCN2 kinase, `CS(=O)(=O)N1CCCC(c2cc(-c3cnc4ccc(C(F)F)nn34)ncn2)CC1` (single isomer, unassigned) [II-275, 6-(Difluoromethyl)-3-(6-(1-(methylsulfonyl)azepan-4-yl)pyrimidin-4-yl)imidazo[1,2-b]pyridazine] returned an inhibition constant Ki of 10 to 1000 nM. The IC50 in experiment [1] lay within 500 to 5000 nM.

As for `CS(=O)(=O)N1CCCC(c2cc(-c3cnc4ccc(C(F)F)nn34)ncn2)CC1` (single isomer, unassigned) [II-276, 6-(Difluoromethyl)-3-(6-(1-(methylsulfonyl)azepan-4-yl)pyrimidin-4-yl)imidazo[1,2-b]pyridazine], the inhibitory constant (Ki) at GCN2 kinase lay in the range of 10 to 1000 nM. The compound further yielded an IC50 in experiment [1] of 500 to 5000 nM.

At GCN2 kinase, `NS(=O)(=O)NCC1CCCN(c2cc(-c3cnc4ccc(C(F)F)nn34)ncn2)C1` (single isomer, unassigned) [II-277] registered a Ki below 10 nM. In addition, the 50% inhibitory concentration (IC50) in experiment [1] is 500 to 5000 nM.

What is called Ki is a dissociation constant, usually derived from enzyme kinetics or from competition with a known ligand. Read a low Ki as tighter binding. By IC50 is commonly meant the concentration needed to halve the response being measured. Higher therefore signals weaker potency in that assay.
